Assay results as given in patent US4933347A, “Diamidines and bis(imidazolines) for the treatment of and prophylaxis against pneumocystis carinii pneumonia” (University of North Carolina at Chapel Hill, priority 1988, dated 1990).

What was measured:
[1] = Toxicity of amidines in rats (standard laboratory procedure); type: in vivo
Description: Compounds having the structure represented by Formula I were synthesized in accordance with the appropriate procedures discussed previously. The reaction schemes shown in Charts I-III specifically identify the methodology used to synthesize the compounds of the respective examples. The compounds which were synthesized are shown in Table IA and the elemental analysis and melting points of the compounds are shown in Table IB. Most of the compounds were tested for toxicity in rats using standard laboratory procedure and the results of that toxicity testing are shown in Table XII. The compounds of Examples 31, 32, and 34 were not synthesized but may be synthesized in the general manner discussed previously.

Pneumocystis carinii = test: Treatment of Pneumocystis carinii pneumonia in Sprague-Dawley rats (extent of disease by histologic score); type: in vivo, male Sprague-Dawley rats; details: for Extent of Disease by Histologic Score: number of animals with score 0.5 / Extent of Disease by Histologic Score: number of animals with score 1 / Extent of Disease by Histologic Score: number of animals with score 2 / Extent of Disease by Histologic Score: number of animals with score 3 / Extent of Disease by Histologic Score: number of animals with score 4: 14 days; for Extent of Disease by Histologic Score: number of animals with score 0.5 / Extent of disease by histologic score (combined): number of animals in scoring group 0.5: 0.5 = <10 cysts found per 2 sections; for Extent of Disease by Histologic Score: number of animals with score 1 / Extent of disease by histologic score (combined): number of animals in scoring group 1: 1 = scattered cysts, <5% of lung involved; for Extent of Disease by Histologic Score: number of animals with score 2 / Extent of disease by histologic score (combined): number of animals in scoring group 2: 2 = scattered cysts; for Extent of Disease by Histologic Score: number of animals with score 2: 5-10% lung involved or small foci of infection; for Extent of Disease by Histologic Score: number of animals with score 3 / Extent of disease by histologic score (combined): number of animals in scoring group 3: 3 = scattered cysts; for Extent of Disease by Histologic Score: number of animals with score 3: 10-50% of lung involved with some intense areas of infection; for Extent of Disease by Histologic Score: number of animals with score 4: 4 = >50% of lung involved with many intense areas of focal infection; for Extent of disease by histologic score (combined): number of animals in scoring group 0.5 / Extent of disease by histologic score (combined): number of animals in scoring group 1 / Extent of disease by histologic score (combined): number of animals in scoring group 2 / Extent of disease by histologic score (combined): number of animals in scoring group 3 / Extent of disease by histologic score (combined): number of animals in scoring group 4: Table XII composite; for Extent of disease by histologic score (combined): number of animals in scoring group 2: 5-10% of lung involved; for Extent of disease by histologic score (combined): number of animals in scoring group 3: 10-50% of lung involved; for Extent of disease by histologic score (combined): number of animals in scoring group 4: 4 = >50% of lung involved

SMILES	Toxicity of amidines: Effect ([1]; rat, in vivo, 2.5 mg/kg)	Extent of Disease by Histologic Score: number of animals with score 0.5 (Pneumocystis carinii; 2.5 mg/kg i.v. daily) [animals]	Extent of Disease by Histologic Score: number of animals with score 1 (Pneumocystis carinii; 2.5 mg/kg i.v. daily) [animals]	Extent of Disease by Histologic Score: number of animals with score 2 (Pneumocystis carinii; 2.5 mg/kg i.v. daily) [animals]	Extent of Disease by Histologic Score: number of animals with score 3 (Pneumocystis carinii; 2.5 mg/kg i.v. daily) [animals]	Extent of Disease by Histologic Score: number of animals with score 4 (Pneumocystis carinii; 2.5 mg/kg i.v. daily) [animals]	Extent of disease by histologic score (combined): number of animals in scoring group 0.5 (Pneumocystis carinii; tested at 2.5 mg/kg) [animals]	Extent of disease by histologic score (combined): number of animals in scoring group 1 (Pneumocystis carinii; tested at 2.5 mg/kg) [animals]	Extent of disease by histologic score (combined): number of animals in scoring group 2 (Pneumocystis carinii; tested at 2.5 mg/kg) [animals]	Extent of disease by histologic score (combined): number of animals in scoring group 3 (Pneumocystis carinii; tested at 2.5 mg/kg) [animals]	Extent of disease by histologic score (combined): number of animals in scoring group 4 (Pneumocystis carinii; tested at 2.5 mg/kg) [animals]	other results
N=C(N)c1ccc(OCCCCOc2ccc(C(=N)N)cc2Cl)c(Cl)c1 [Example 24]	None	0	1	2	3	2	0	1	2	3	2	
N=C(N)c1ccc(OCCCCCOc2ccc(C(=N)N)cc2Cl)c(Cl)c1 [Example 25]	None	0	0	0	4	4	0	0	0	4	4	
N=C(N)c1ccc(NCCCNc2ccc(C(=N)N)cc2[N+](=O)[O-])c([N+](=O)[O-])c1 [Example 35]												Toxicity of amidines: Effect ([1]; tested at 5 mg/kg): no toxicity; Extent of Disease by Histologic Score: number of animals with score 0.5 (Pneumocystis carinii; 5 mg/kg i.v. daily): 0 animals; Extent of Disease by Histologic Score: number of animals with score 1 (Pneumocystis carinii; 5 mg/kg i.v. daily): 0 animals; Extent of Disease by Histologic Score: number of animals with score 2 (Pneumocystis carinii; 5 mg/kg i.v. daily): 0 animals; Extent of Disease by Histologic Score: number of animals with score 3 (Pneumocystis carinii; 5 mg/kg i.v. daily): 2 animals; Extent of Disease by Histologic Score: number of animals with score 4 (Pneumocystis carinii; 5 mg/kg i.v. daily): 6 animals; Extent of disease by histologic score (combined): number of animals in scoring group 0.5 (Pneumocystis carinii; tested at 5 mg/kg): 0 animals; Extent of disease by histologic score (combined): number of animals in scoring group 1 (Pneumocystis carinii; tested at 5 mg/kg): 0 animals; Extent of disease by histologic score (combined): number of animals in scoring group 2 (Pneumocystis carinii; tested at 5 mg/kg): 0 animals; Extent of disease by histologic score (combined): number of animals in scoring group 3 (Pneumocystis carinii; tested at 5 mg/kg): 2 animals; Extent of disease by histologic score (combined): number of animals in scoring group 4 (Pneumocystis carinii; tested at 5 mg/kg): 6 animals
N=C(N)c1ccc(OCCCCOc2ccc(C(=N)N)cc2[N+](=O)[O-])c([N+](=O)[O-])c1 [Example 38]		0	0	3	1	4	0	0	3	1	4	Toxicity of amidines: Effect ([1]; dose as in value, else not given in Table XIII (10 mg/kg test dose)): Acute toxicity at 10 mg/kg and 5 mg/kg; Toxicity of amidines: Effect ([1]; tested at 2.5 mg/kg): no toxicity
CN1CCN=C1c1ccc(OCCCCOc2ccc(C3=NCCN3C)cc2)cc1 [Example 41]	no toxicity	0	0	2	4	2	0	0	2	4	2	
